Reference: patent US20130022673A1, “ENHANCEMENT OF MAGNESIUM UPTAKE IN MAMMALS” (priority 2003, published 2013)

What was measured:
[1] = oral intake; 'it is believed'; cited from earlier work
[2] = system: 'restless legs' and intermittent leg cramps; settings: Week 3-4; scale 0 to 100
Source text: A person suffered from ‘restless legs’ and intermittent leg cramps during sleep.
Each week the subject was asked to rate the intensity of the problem on a consistent rating scale with ‘0’ indicating no problem and ‘100’ indicating the most severe expression of the condition.

Compound	fraction of elemental magnesium absorbed for use by the body [1] [%]	Ave. intensity of leg cramp related difficulty [2]
[O]=[Mg] [magnesium oxide]	3 to 12	–
choline citrate	–	83
